Results on 2 compounds are retold here after US20060194315A1, “Compositions and methods for the control, differentiaton and/or manipulation of pluripotent cells through a gamma-secretase signaling pathway” (priority 2003, published 2006).

Test [1] concerns hES cells. Nature of the test: SSEA4 immunohistochemistry of treated hES cell cultures. It counts as cell-based, human. Particulars: 50 μM DAPT vs DMSO treated cultures. How it is done:
Cells on chamber slides were rinsed once with 1× PBS and fixed for 30 minutes in 4% PFA/4% sucrose in PBS pH7.4 at room temperature for surface staining, or in ice cold 100% methanol for 5 minutes at −20° C. followed by 4% PFA/4% sucrose in PBS for 10 minutes at room temperature for intracellular staining using the bTAN20 antibody. They were rinsed 3× in 1×PBS and blocked in 3% goat serum/1% PVP with or without 0.3% Triton-X100 in PBS for 30 minutes at 4° C. Primary antibodies were diluted in blocking solution and this solution was applied overnight at 4° C. to the cells. Cells were rinsed in 1×PBS and washed overnight with 3 changes of 1×PBS. Secondary antibodies were applied in blocking solution for 2 hours at 4° C. They were rinsed in 1×PBS then washed overnight with 3 changes of 1×PBS. Cell nuclei were stained with DAPI at 1 μg/ml in the first rinse for 10 minutes. The chambers were removed and slides were mounted in VectaShield mounting medium.
Inhibition of gamma-secretase reduces the number of spontaneously differentiated cells in the culture. […] These experiments are diagramed in FIG. 9. hES cell master cultures were maintained with the manual passaging technique. […] The treated cultures were analyzed for SSEA4 expression by flow cytometry, immunohistochemistry, and EB formation.

The test system of test [2] is hES cells. Nature of the test: Embryoid body formation from late trypsin passaged hES cultures. Particulars: late trypsin passaged cultures maintained in DAPT vs DMSO vs untreated. Type of test: cell-based, human. How it is done: Embryoid bodies were formed from cultures that had been growing on Matrigel and exposed to the different treatments. These cultures were exposed to Collagenase type IV or Dispase (Gibco) for 10 minutes at 37° C. until a monolayer of cells lifted off of the dish. The monolayer was passed through a pipette tip until it was broken down to small clumps of approximately 500-1000 cells. These clumps were washed in 15% FBS/1% MEM nonessential amino acids/1 mM L-glutamine/penicillin (0.5 U/ml) and streptomycin (0.5 U/ml) twice by allowing them to settle by gravity, removing the supernatant, and resuspending the loose pellet. The cells were plated onto agarose coated Petri dishes in the same medium used for washing and allowed to grow for up to 10 days.
Inhibition of gamma-secretase reduces the number of spontaneously differentiated cells in the culture. […] These experiments are diagramed in FIG. 9. hES cell master cultures were maintained with the manual passaging technique. A combination of Collagenase type IV treatment and Trypsin/EDTA exposure was used to passage the hES cells as single cells for no more than 10-12 passages before SSEA4 selection for early trypsin cultures, or were passaged more than 40 passages for late trypsin cultures. […] The treated cultures were analyzed for SSEA4 expression by flow cytometry, immunohistochemistry, and EB formation.

For another test, the system named is Hes1. The experiment in a line: Real-time RT-PCR of Hes1 induction by EDTA in hES cells. It counts as cell-based, human. How it is done:
Hes1 induction by EDTA treatment was monitored by real-time RT-PCR. Cultures of […] on Matrigel-coated 24-well plates were treated with either 0.5% DMSO or 50 μM DAPT in CM for 4 hours to overnight before induction by EDTA exposure. The wells were exposed to 2 mM EDTA in CM (with DMSO or DAPT) for 15 minutes at 37° C. EDTA was neutralized by addition of 4.9 mM CaCl2 and incubated for a further 1.5 hours. The cells were harvested with Trizol and RNA was extracted as described above. Real-time PCR was performed using TaqMan primers and probes (Applied Biosystems, Inc.) for Hes1 (primer sequences: […] ID NO: 17); […] ID NO:18); probe […] NO:19)) and normalized to GAPDH (kit from Applied Biosystems, Inc; cat. no. 402869). Reactions were run and monitored on an ABI7700 Sequence Detection System (Applied Bioysytems, Inc). Data was analyzed as described in Pfaffl et al., 2002 Nucleic Acids Research 30(9): […]. REST-XL (version 2) software was used to determine relative quantification of Hes1 gene expression. The data were expressed as the ratio of GAPDH normalized Hes1 expression of EDTA-treated to EDTA-untreated samples. DAPT treated cultures were compared to DMSO treated cultures. These values were log transformed for statistical analysis by t-test and graphed in Excel.
In general terms: In qPCR the cycle at which signal appears reflects the starting amount.

Test [3] has as its system hES cells (BGN1 and BGN2). Nature of the test: Flow cytometry of SSEA4 and Notch1 expression in treated hES cell cultures. Type of test: cell-based, human. The note with it: for proportion of cells in Fr. A (SSEA4high/Notch1high, undifferentiated cells): 50 μM DAPT vs DMSO, four experiments. How it is done:
Cultures were harvested by Collagenase/trypsin passaging methods described above as an essentially single cell suspension, washed in 1×PBS, and fixed in 1% paraformaldehyde for 25 minutes on ice. The cells were washed in 1×PBS, blocked in 3% goat serum, and stained with primary antibodies for 30 minutes. to overnight at 4° C. The cells were washed in 1×PBS three times and stained with Secondary FITC or PE conjugated antibodies (Jackson Immunochemicals, Inc.) for 1 hour to overnight at 4° C. The cells were washed with 1×PBS three times and analyzed on a CyAn flow cytometer (DakoCytomation, Inc.).
Inhibition of gamma-secretase reduces the number of spontaneously differentiated cells in the culture. […] These experiments are diagramed in FIG. 9. hES cell master cultures were maintained with the manual passaging technique. A combination of Collagenase type IV treatment and Trypsin/EDTA exposure was used to passage the hES cells as single cells for no more than 10-12 passages before SSEA4 selection for early trypsin cultures, or were passaged more than 40 passages for late trypsin cultures. The cultures were selected for SSEA4 epitope expression using magnetic selection of SSEA4 antibody-stained cells. The retained fraction from the sort was plated and subjected to the treatment conditions. In some instances, SSEA4 selected cells were expanded for one or two passages. Treatment conditions were 50 μM DAPT, or 0.5% DMSO as carrier control. In some cases, these conditions were compared to untreated cells. The treated cultures were analyzed for SSEA4 expression by flow cytometry, immunohistochemistry, and EB formation.
(In general: A flow cytometer gives signals particle by particle.)

In the next test the target is T1, gamma-secretase complex (Homo sapiens, UniProt P49768).
T1 construct: endogenous in cells; host or cells: BGN1 human embryonic stem cells, grown on mouse embryonic fibroblast feeders
The experiment in a line: Western blot for gamma-secretase cleaved Notch1 (NICD) in hES cells harvested with Trypsin/EDTA. Type of test: cell-based. The note with it: BGN1 hES cells grown in 50 μM DAPT for 3 days, vs 0.5% DMSO. How it is done: Western blots were done using standard procedures. In brief, protein content of samples was determined with a BCA micro protein assay (Pierce, Rockford, Ill.) and equal amounts of protein were loaded onto precast polyacrylamide mini-gels (Gradipore, Australia). Proteins were transferred to nylon membranes which were then incubated for 30 minutes in blocking buffer (tris buffered saline/0.1% tween 20/5% powdered milk). Primary antibodies were diluted in blocking buffer at the following ratios: bTAN20 and C651.6bHN were diluted 1:10; anti-Oct4 was diluted 1:100; anti-presenilin, nicastrin, cleaved NOTCH1 were diluted 1:1000 and anti-HDAC was used at a concentration of 0.5 μg/ml. Primary antibodies were incubated overnight at 4° C., followed by two five-minute washes and one 15-minute wash in tris-buffered saline/0.1% tween 20. Secondary antibodies were diluted in blocking buffer and incubated with the membranes for 45 minutes at room temperature. Washes were repeated as above and a final 15-minute wash was done with tris-buffered saline. ECL (Amersham, Buckinghamshire, England) was performed according to the manufacturer's instructions and autoradiographs were made.
To address the possibility that trypsin non-specifically generated the 110 kD Notch1 band, DAPT, a potent and specific gamma-secretase inhibitor, was used to treat the hES cells before harvesting. […]
Background: A western blot detects proteins with antibodies after separation by electrophoresis.

[4] abbreviates: inhibitor treatment vs DMSO, 4 experiments, BGN1 and BGN2.

T1 sequence (Q92542 34-709, other chains not shown): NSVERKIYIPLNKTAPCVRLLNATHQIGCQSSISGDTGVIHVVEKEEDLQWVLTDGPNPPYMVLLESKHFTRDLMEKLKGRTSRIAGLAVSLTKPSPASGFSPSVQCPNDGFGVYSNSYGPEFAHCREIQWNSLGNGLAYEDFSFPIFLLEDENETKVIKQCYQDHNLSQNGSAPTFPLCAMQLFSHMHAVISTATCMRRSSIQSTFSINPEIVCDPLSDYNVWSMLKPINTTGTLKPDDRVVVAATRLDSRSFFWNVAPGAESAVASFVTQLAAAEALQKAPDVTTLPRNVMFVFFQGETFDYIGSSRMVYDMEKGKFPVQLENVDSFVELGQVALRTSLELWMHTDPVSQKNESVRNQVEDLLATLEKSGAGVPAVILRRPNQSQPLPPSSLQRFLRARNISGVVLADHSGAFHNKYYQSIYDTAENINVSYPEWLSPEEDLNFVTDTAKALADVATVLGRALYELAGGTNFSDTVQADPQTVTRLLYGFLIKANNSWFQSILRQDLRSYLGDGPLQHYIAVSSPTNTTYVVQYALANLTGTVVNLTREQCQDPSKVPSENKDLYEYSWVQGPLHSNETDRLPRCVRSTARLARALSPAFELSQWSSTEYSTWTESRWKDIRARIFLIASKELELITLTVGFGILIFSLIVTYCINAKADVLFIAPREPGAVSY
T1 sequence (Q96BI3 whole entry, other chains not shown, further chain): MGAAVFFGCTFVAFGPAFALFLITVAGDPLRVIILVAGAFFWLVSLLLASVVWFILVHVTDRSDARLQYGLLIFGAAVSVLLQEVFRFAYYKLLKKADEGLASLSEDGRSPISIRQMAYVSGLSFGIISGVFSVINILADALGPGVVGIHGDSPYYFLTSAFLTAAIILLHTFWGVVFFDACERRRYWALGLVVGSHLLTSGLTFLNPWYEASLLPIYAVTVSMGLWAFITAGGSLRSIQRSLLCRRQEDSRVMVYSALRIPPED
T1 sequence (Q9NZ42 whole entry, other chains not shown, further chain): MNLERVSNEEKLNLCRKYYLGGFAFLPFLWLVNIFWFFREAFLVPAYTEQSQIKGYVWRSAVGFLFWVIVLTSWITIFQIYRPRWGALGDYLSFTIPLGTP

On to `C[C@H](NC(=O)Cc1cc(F)cc(F)c1)C(=O)N[C@H](C(=O)OC(C)(C)C)c1ccccc1` [DAPT, N-[N-(3,5-Difluorophenacetyl-L-alanyl)]-S-phenylglycine t-Butyl Ester], for which the “homogeneity of SSEA4 expression (immunohistochemical stain)” value in the test on hES cells [1] is on record as “more homogenous”. The “morphology of embryoid bodies” value in the test with hES cells [2] was “returned the EBs to a cystic morphology”. Besides, the “Hes1 induction by EDTA in the presence of the inhibitor (GAPDH normalized expression ratio)” value with Hes1 (50 μM DAPT 4 hours to overnight, 2 mM EDTA 15 minutes, three independent experiments) was “less than two-fold”. Further, the “reduction in Hes1 expression with inhibitor treatment, significance” value in the test with Hes1 (EDTA induction, DAPT vs DMSO, p=0.032, t-test) is listed as “significant”. Moreover, the “proportion of cells in Fr. A (SSEA4high/Notch1high, undifferentiated cells)” value is recorded as “small but significant increase” in test [3] (BGN1 and BGN2); “significantly increased” in test [3] (BGN1 and BGN2, listed as inhibitor). The “cells in Fr. B (SSEA4low-neg/Notch1pos, differentiating cells)” value in test [3] (50 μM DAPT, average of four experiments, BGN1 and BGN2, DMSO control 30%, p=0.0243) is on record as 15%. In test [3] (DAPT vs DMSO and untreated, triplicate cultures), the “proportion of Fr. B (SSEA4low-neg/Notch1pos) cells in culture, in words” value is listed as “reduced”. Further, in test [3] (setting [4]), the “number of cells in Fr. A” value is on record as “remained unchanged”. The “number of cells in Fr. B” value in test [3] (setting [4]) is reported as “significantly reduced”. Further, at gamma-secretase complex, the “generation of the NICD fragment (cleaved form of Notch1) upon Trypsin/EDTA exposure” value is “not generated”.

`O=C(O)CN(CCN(CC(=O)O)CC(=O)O)CC(=O)O` [EDTA]: the “Hes1 induction by EDTA exposure” value in the test on Hes1 (2 mM EDTA 15 minutes, three independent experiments) is given as “up to 10 fold”.
